Source: PubChem BioAssay AID248 (DTP/NCI, 2004)
Toxic doses and inconclusive results are not listed. No stated cut-off is given here; in the data, active means T/C of 150% or more; inactive means T/C below 125%.

Tested on: L1210 leukemia ip in BDF1 mice, survival T/C
Assay: NCI In Vivo Anticancer Drug Screen. Data for tumor model L1210 Leukemia (intraperitoneal) in B6D2F1 (BDF1) mice
Settings: endpoint: mean survival time, higher = longer survival
How it was run: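 Transplanted-tumor mice were given test agent; controls received vehicle only. Survival readings from the two groups were divided (treated over control).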

[1] = dose: 100.0 mg/kg/injection, schedule: Q01DX009 (ip), vehicle: Klucel (hydroxypropylcellulose) (HPC)
[2] = dose: 200.0 mg/kg/injection, schedule: Q01DX009 (ip), vehicle: Klucel (hydroxypropylcellulose) (HPC)
[3] = dose: 400.0 mg/kg/injection, schedule: Q01DX009 (ip), vehicle: Klucel (hydroxypropylcellulose) (HPC)
[4] = dose: 100.0 mg/kg/injection, schedule: Q04DX003 (ip), vehicle: saline
[5] = dose: 200.0 mg/kg/injection, schedule: Q04DX003 (ip), vehicle: saline
[6] = dose: 400.0 mg/kg/injection, schedule: Q04DX003 (ip), vehicle: saline
[7] = dose: 200.0 mg/kg/injection, schedule: Q01DX001 (ip), vehicle: carboxymethylcellulose (CMC)
[8] = dose: 400.0 mg/kg/injection, schedule: Q01DX001 (ip), vehicle: carboxymethylcellulose (CMC)
[9] = dose: 100.0 mg/kg/injection, schedule: Q01DX001 (ip), vehicle: carboxymethylcellulose (CMC)
[10] = dose: 50.0 mg/kg/injection, schedule: Q01DX001 (ip), vehicle: saline
[11] = dose: 100.0 mg/kg/injection, schedule: Q01DX001 (ip), vehicle: saline
[12] = dose: 200.0 mg/kg/injection, schedule: Q01DX001 (ip), vehicle: saline
[13] = dose: 400.0 mg/kg/injection, schedule: Q01DX001 (ip), vehicle: saline

Measured: T/C

CC(C)(C)NC(=O)CCC1C(NC(=O)C(C)(C)C)C2(Cl)C(Cl)=C(Cl)C1(Cl)C2(Cl)Cl (centres undefined)
inactive: [1] 90 % of control | dose: 100.0 mg/kg/injection, schedule: Q04DX003 (ip), vehicle: Klucel (hydroxypropylcellulose) (HPC) 92 % of control | [2] 90 % of control | dose: 200.0 mg/kg/injection, schedule: Q04DX003 (ip), vehicle: Klucel (hydroxypropylcellulose) (HPC) 92 % of control | [3] 90 % of control | dose: 400.0 mg/kg/injection, schedule: Q04DX003 (ip), vehicle: Klucel (hydroxypropylcellulose) (HPC) 93 % of control

CCCCCCCCCCCCSC(SCCCCCCCCCCCC)c1ccc(OCC(=O)O)cc1
inactive: dose: 25.0 mg/kg/injection, schedule: Q04DX003 (ip), vehicle: saline 105 % of control | dose: 50.0 mg/kg/injection, schedule: Q04DX003 (ip), vehicle: saline 96 % of control | [1] 97 % of control | [4] 100 % of control | [2] 94 % of control | [5] 102 % of control | [3] 97 % of control | [6] 96 % of control

Nc1ncc(C=Nc2ccc(C(=O)O)cc2)c(N)n1
inactive: [7] 94 % of control | [8] 102 % of control

COc1c(OCC=C(C)C)cc2c(c1O)c(=O)c1ccccc1n2C
inactive: [9] 100 % of control | [7] 93 % of control | [8] 98 % of control

COc1ccccc1NC(=O)NNC(=O)CCCC(=O)NNC(=O)Nc1ccccc1OC
inactive: [10] 100 % of control | [11] 97 % of control | [12] 103 % of control | [13] 97 % of control

COC(=O)C1CC(=O)C(C(=O)OC)CC1=O (centres undefined)
inactive: [1] 89 % of control | [2] 92 % of control | [3] 89 % of control

COC(=O)C1CNc2ccccc2C1=O (centres undefined)
inactive: dose: 50.0 mg/kg/injection, schedule: Q01DX001 (ip), vehicle: carboxymethylcellulose (CMC) 97 % of control | [9] 92 % of control | [7] 97 % of control | [8] 92 % of control

CC(C(O)c1ccncc1)[N+](=O)[O-] (centres undefined)
inactive: dose: 100.0 mg/kg/injection, schedule: Q04DX002 (ip), vehicle: saline with Tween-80 92 % of control | dose: 200.0 mg/kg/injection, schedule: Q04DX002 (ip), vehicle: saline with Tween-80 107 % of control | dose: 400.0 mg/kg/injection, schedule: Q04DX002 (ip), vehicle: saline with Tween-80 92 % of control

C[n+]1ccn(CC(=O)c2ccccc2)c1
inactive: dose: 25.0 mg/kg/injection, schedule: Q01DX009 (ip), vehicle: saline 98 % of control | dose: 50.0 mg/kg/injection, schedule: Q01DX009 (ip), vehicle: saline 112 % of control | dose: 100.0 mg/kg/injection, schedule: Q01DX009 (ip), vehicle: saline 93 % of control

Cc1ccc(CNc2ccccc2)cc1
inactive: dose: 12.5 mg/kg/injection, schedule: Q04DX003 (ip), vehicle: saline with Tween-80 95 % of control | dose: 25.0 mg/kg/injection, schedule: Q04DX003 (ip), vehicle: saline with Tween-80 95 % of control | dose: 50.0 mg/kg/injection, schedule: Q04DX003 (ip), vehicle: saline with Tween-80 97 % of control | dose: 100.0 mg/kg/injection, schedule: Q01DX009 (ip), vehicle: other 112 % of control | dose: 200.0 mg/kg/injection, schedule: Q01DX009 (ip), vehicle: other 93 % of control | dose: 400.0 mg/kg/injection, schedule: Q01DX009 (ip), vehicle: other 93 % of control

CCc1nc2ccccc2[nH]1
inactive: dose: 100.0 mg/kg/injection, schedule: Q04DX003 (ip), vehicle: saline with Tween-80 97 % of control | dose: 200.0 mg/kg/injection, schedule: Q04DX003 (ip), vehicle: saline with Tween-80 102 % of control

Cc1cccc(C)c1N=Nc1sc(N)nc1C
inactive: dose: 75.0 mg/kg/injection, schedule: Q01DX001 (ip), vehicle: acetone 114 % of control | dose: 150.0 mg/kg/injection, schedule: Q01DX001 (ip), vehicle: acetone 94 % of control | dose: 300.0 mg/kg/injection, schedule: Q01DX001 (ip), vehicle: acetone 110 % of control

CCOC(=O)NC(S(=O)(=O)O)S(=O)(=O)O.[Tl]
inactive: dose: 25.0 mg/kg/injection, schedule: Q01DX001 (ip), vehicle: saline with Tween-80 102 % of control

O=C(O)c1cccc(OCc2ccccc2)c1
inactive: [1] 105 % of control | [2] 100 % of control

CC(C)c1cc(O)ccc1N(C)C (tested in a mixture with another compound)
inactive: dose: 3.2 micrograms/kg/injection, schedule: Q01DX009 (ip), vehicle: saline 97 % of control | dose: 8.0 micrograms/kg/injection, schedule: Q01DX009 (ip), vehicle: saline 90 % of control | dose: 16.0 micrograms/kg/injection, schedule: Q01DX009 (ip), vehicle: saline 87 % of control | dose: 32.0 micrograms/kg/injection, schedule: Q01DX009 (ip), vehicle: saline 90 % of control

Cn1c2ccccc2c(=O)c2cc(N)ccc21
inactive: [4] 95 % of control | [5] 98 % of control | [6] 104 % of control

CN=C(NCCCOC)c1ccc(NC(=O)c2ccc(C(=O)Nc3ccc(C(=NC)NCCCOC)cc3)c([N+](=O)[O-])c2)cc1
inactive: dose: 1.0 mg/kg/injection, schedule: Q01DX Z (ip), vehicle: carboxymethylcellulose (CMC) 91 % of control | dose: 1.88 mg/kg/injection, schedule: Q01DX Z (ip), vehicle: saline 92 % of control | dose: 2.0 mg/kg/injection, schedule: Q01DX Z (ip), vehicle: carboxymethylcellulose (CMC) 91 % of control | dose: 3.75 mg/kg/injection, schedule: Q01DX Z (ip), vehicle: saline 98 % of control | dose: 4.0 mg/kg/injection, schedule: Q01DX Z (ip), vehicle: carboxymethylcellulose (CMC) 92 % of control | dose: 7.5 mg/kg/injection, schedule: Q01DX Z (ip), vehicle: saline 104 % of control | dose: 8.0 mg/kg/injection, schedule: Q01DX Z (ip), vehicle: carboxymethylcellulose (CMC) 95 % of control | dose: 15.0 mg/kg/injection, schedule: Q01DX Z (ip), vehicle: carboxymethylcellulose (CMC) 101 % of control | dose: 15.0 mg/kg/injection, schedule: Q01DX Z (ip), vehicle: saline 92 % of control

COC(=O)CCC(=O)c1cc(OC)c2cc3ccccc3cc2c1OC
inactive: dose: 100.0 mg/kg/injection, schedule: Q01DX001 (ip), vehicle: other 96 % of control | dose: 200.0 mg/kg/injection, schedule: Q01DX001 (ip), vehicle: other 96 % of control | dose: 400.0 mg/kg/injection, schedule: Q01DX001 (ip), vehicle: other 100 % of control

O=C(OCc1ccccc1)C1CCCN1 (centres undefined)
inactive: dose: 25.0 mg/kg/injection, schedule: Q01DX009 (ip), vehicle: water 104 % of control | dose: 25.0 mg/kg/injection, schedule: Q04DX003 (ip), vehicle: water 109 % of control | dose: 50.0 mg/kg/injection, schedule: Q01DX009 (ip), vehicle: water 97 % of control | dose: 50.0 mg/kg/injection, schedule: Q04DX003 (ip), vehicle: water 96 % of control | dose: 100.0 mg/kg/injection, schedule: Q01DX009 (ip), vehicle: water 97 % of control | dose: 100.0 mg/kg/injection, schedule: Q04DX002 (ip), vehicle: saline 100 % of control | dose: 100.0 mg/kg/injection, schedule: Q04DX003 (ip), vehicle: water 102 % of control | dose: 200.0 mg/kg/injection, schedule: Q01DX009 (ip), vehicle: water 102 % of control | dose: 200.0 mg/kg/injection, schedule: Q04DX002 (ip), vehicle: saline 96 % of control | dose: 200.0 mg/kg/injection, schedule: Q04DX003 (ip), vehicle: water 102 % of control | dose: 400.0 mg/kg/injection, schedule: Q01DX009 (ip), vehicle: water 103 % of control | dose: 400.0 mg/kg/injection, schedule: Q04DX003 (ip), vehicle: water 109 % of control

CCCCCCCCCCCCCC(CCCCCC)C1CCCCC1 (centres undefined)
inactive: dose: 100.0 mg/kg/injection, schedule: Q01DX001 (ip), vehicle: acetone 100 % of control | dose: 200.0 mg/kg/injection, schedule: Q01DX001 (ip), vehicle: acetone 106 % of control | dose: 400.0 mg/kg/injection, schedule: Q01DX001 (ip), vehicle: acetone 101 % of control

CCCCCCCCCCCCCCCCCC[As](=O)(O)CCCCCCCCCCCCCCCCCC
inactive: [10] 97 % of control | [11] 101 % of control | [12] 91 % of control | [13] 101 % of control

CCOC(=O)N1C2c3ccccc3C3C(C21)N3C(=O)OCC (centres undefined)
inactive: [11] 105 % of control | [12] 102 % of control | [13] 108 % of control

CCC(O)C(C)CO (centres undefined)
inactive: [11] 103 % of control | [12] 121 % of control | [13] 97 % of control
